Reference: US12419875B2, “Use of Axitinib and analogs thereof in preparing blood-brain barrier permeability regulator” (ZHEJIANG UNIVERSITY, priority 2018, dated 2025)

Key:
[1] = system: tyrosine hydroxylase; assay: Striatum tyrosine hydroxylase immunohistochemistry, model of Parkinson's disease; conditions: Axitinib 10 mg/kg 7 days; levodopa 20 mg/kg 10 days; FIG. 29
[2] = system: model of Parkinson's disease; assay: Movement time within 2 minutes, model of Parkinson's disease; assay type: in vivo, C57/BL6 mice; conditions: Axitinib 10 mg/kg 7 days; levodopa 20 mg/kg 10 days; vs Parkinson's control; FIG. 28
Method: After the treatment was accomplished, movement time within 2 minutes (walking, lifting of both forelimbs, washing face, hair grooming and the like) was recorded for each of the test groups (n=5).
After the Axitinib treatment and the levodopa treatment was accomplished, movement time within 2 minutes (walking, lifting of both forelimbs, washing face, hair grooming and the like) was recorded for each of the test groups.

[3] = system: pathological blood-brain barrier; assay: Evans blue permeation into the brain after treatment, model of Parkinson's disease; assay type: in vivo, C57/BL6 mice; conditions: Axitinib 10 mg/kg tail vein 7 days; levodopa 20 mg/kg intraperitoneally 10 days; vs Parkinson's control; FIGS. 26 and 27
[4] = system: bEnd.3 cells; assay: Cell survival rate by tetrazolium blue colorimetry, bEnd.3 cells; assay type: cell-based; conditions: 10 μM (therapeutic dose), FIGS. 13 and 14
Method: (§1) FIG. 13: Evaluation of cell survival rate in a Transwell model. A Transwell model of co-incubation of brain microvascular endothelial cells bEnd.3 and glioma cells U87 MG simulates a pathological blood-brain barrier. Axitinib (10 μM) and an Axitinib analog of phosphatidylinositol kinase (PI3K) inhibitor LY294002 (10 μM) were added into the Transwell chamber. After 24 hours, the survival rate of bEnd.3 cells in the Transwell chamber (Panel A) and U87 MG cells in the Transwell outer chamber (Panel B) were detected by tetrazolium blue colorimetry (n=3).
(§2) FIG. 14: Evaluation of Cytotoxicity for Axitinib and an analog thereof. […] Cell survival rate was detected by tetrazolium blue colorimetry. […]
(§3) The physiological blood-brain barrier and the pathological blood-brain barrier as constructed in Method 1 and Method 2 in the Example 1 were used as models, respectively. […] Absorbance at 570 nm was measured with a microplate reader. The survival rate of cells was calculated according to the following formula: Survival rate of cells (%)=(absorbance value of a test group/absorbance value of a control group)×100%
(§4) In addition, bEnd.3 cells and U87 MG glioma cells were used as model cells to evaluate the cytotoxicity of Axitinib and an Axitinib analog of phosphatidylinositol kinase (PI3K) inhibitor LY294002 with the tetrazolium blue colorimetric method. […] Absorbance at 570 nm was measured with a microplate reader.

[5] = system: U87 MG glioma cells; assay: Cell survival rate by tetrazolium blue colorimetry, U87 MG cells; assay type: cell-based; conditions: U87MG cells, 10 μM (therapeutic dose); FIGS. 13 and 14
Method: as §1, §2, §3, §4

SMILES | Expression of striatum tyrosine hydroxylase [1] | Dyskinesia (movement time within 2 minutes) [2] | Amount of Evans blue permeated into the brain [3] | Cytotoxicity [4] | Cytotoxicity [5]
N[C@@H](Cc1ccc(O)c(O)c1)C(=O)O [levodopa] | significantly up-regulated | significantly alleviated | reduced to varied degrees | – | –
O=c1cc(N2CCOCC2)oc2c(-c3ccccc3)cccc12 [LY294002] | – | – | – | do not produce significant cytotoxicity | do not produce significant cytotoxicity
